Data set [1] in a line: SW1271 cell viability assay. Type of data set: cell-based. The settings on record: human, SW1271 small cell lung cancer cells (luciferase-constructed), SW1271 cells. As for the experimental part: UCHL1 is a key promoter of cell invasion and metastasis in small cell lung cancer but not necessarily required for cell viability or proliferation. Thus, we chose to assess the efficacy of targeting UCHL1 using the SW1271 small cell lung cancer cell line. […] The Ub-ABP assay was used to confirm on target engagement of UCHL1 within these cells.
Luciferase-constructed cancer cells were seeded in 96-well plates at 10,000 cells/well with the compounds at the indicated concentrations. DMSO was used as vehicle control. Luminescence readings were acquired after adding 1% D-luciferin (GoldBio, St. Louis, MO, USA) after 24 h. Cell viability was determined by the ratio of luminescence reading compared to the one at 0 h, and normalized to vehicle control.

Data set [2] deals with T1, UCHL1 (Homo sapiens, UniProt P09936).
T1 sequence (P09936 1-223): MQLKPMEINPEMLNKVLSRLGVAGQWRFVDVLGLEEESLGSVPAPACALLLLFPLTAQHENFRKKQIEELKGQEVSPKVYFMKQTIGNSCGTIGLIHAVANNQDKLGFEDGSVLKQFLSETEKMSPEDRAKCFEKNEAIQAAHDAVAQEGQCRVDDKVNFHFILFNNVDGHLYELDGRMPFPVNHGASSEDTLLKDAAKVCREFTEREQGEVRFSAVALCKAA
Put plainly: Fluorescence-based Ub-Rho deubiquitinase activity assay. Type of data set: biochemical. Details: made in house. As to conditions: for IC50: 3 h of preincubation with UCHL1, technical triplicate, averages, read-out: IC50; for in vitro activity against UCHL1: up to 200 µM. As for the experimental part:
Thus, a 3-h preincubation period was selected for the structure-activity relationship (SAR) comparison of all analogs to ensure full reaction time and for consistent comparison of activity against UCHL1 within the scaffold. […] A 10 mM stock solution was made for each inhibitor in DMSO, then a dilution of 600 µM in reaction buffer was made followed eight by 1:1 serial dilutions. […] These were allowed to incubate, while sealed, for the 3 h at room temperature. […] The % activity was plotted as a function of inhibitor concentration and the data was fitted with non-linear regression analysis to calculate the IC50 values. Errors are reported as the 95% confidence interval calculated from experiments collected in technical triplicate.

Data set [3] addresses T1, UCHL1. Described as above. Type of data set: biochemical. Further details: made in house. As to conditions: even after 6 h of incubation with the enzyme.
Data set [4] concerns the target T1, UCHL1. As to the kind of experiment: Time-dependent inhibitor analysis (kinact/KI). Type of data set: biochemical. Details: made in house. As for the experimental part: Irreversible covalent inhibitors may be further characterized by determining the reversible binding constant (KI) as well as the rate of the covalent bond formation under saturating conditions (kinact). By determining the IC50 over the course of various timepoints, the pseudo first-order rate constant (kobs) could be calculated. […] The % activity of each inhibitor concentration was the plotted vs. time of pre-incubation and the slope of this plot is the pseudo first-order rate constant (kobs) for inhibition at each concentration. The kobs was plotted as a function of inhibitor concentration and then fit to the equation Y = kinactX/(KI + X) to calculate kinact, KI and kinact/KI as described by Resnick et al..

The next data set concerns SW1271 cells. As to the kind of experiment: Click reaction and in-gel fluorescence of treated SW1271 cells. It counts as cell-based. The settings on record: 100 µM, 4 h. Here is the method: Leveraging the alkyne handle, a click reaction was performed with an azide containing sulfo-cyanine5 fluorophore (Cy5) to visualize proteins within the cells that were conjugated to either the fluoromethylketone 34 or the chloromethylketone 37. Cells were pretreated with either analog then harvested and washed to removed unreacted inhibitor. The cells were then lysed and the click reaction was performed on lysates. […] Further evaluation using proteomic profiling is warranted to gain a quantitative understanding on the potential for non-specificity at off-target cysteines.
Cells were treated with 100 µM inhibitor or DMSO for 4 h before being washed, scraped, and lysed in 200 µL of lysis buffer (1× PBS, 1% v/v Triton X-100, 0.1% w/v SDS, 1X HALT) for 30 min on ice with vigorous vortexing every 10 min. Samples were then pelleted at 17,000× g for 10 min before collecting the supernatant and measuring concentration using BCA. Samples were normalized to 2 mg/mL and stored at −80 °C overnight. The following day, samples were thawed. While thawing, a click cocktail was prepared (for each sample, the cocktail consists of: 3 µL of 1.7 mM THPTA in 1:4 tBuOH/DMSO, 1 µL of 50 mM CuSO4 in water, 1 µL of 1.25 mM Cy5-N3 in DMSO, and 1 µL of 50 mM TCEP in water freshly prepared). […] The samples were then analyzed by SDS-PAGE and imaged on a Licor Odyssey and subsequently Coomassie stained.

The test system of another data set is KMS-12 cell lines. Details: method as in PMID 31449350. As to conditions: cells do not express UCHL1; cited from earlier work.
Data set [5] concerns the target T1, UCHL1. Details: made in house. The settings on record: previous studies; cited from earlier work.
Where [6] appears, read: IC50 comparison, 3 h preincubation.

Where a SMILES comes first, the peptide text is derived from it. [ ]: non-standard residue; d: D form. The star is where a group is joined. Cbz = O=C(OCc1ccccc1)*; CH2Cl = ClC*; CH2F = FC* Some results are limits rather than exact numbers.

Usually CC50 stands for the concentration at which the toxic effect on the cells reaches its halfway point. High values mean lower toxicity to the cells, low ones greater toxicity to the cells. For orientation: IC50 means the concentration that gives 50% inhibition. A word on the kinact: it is the maximal first-order rate at which the target is inactivated.

Turning to `COC(=O)CC[C@H](NC(=O)[C@H](C)NC(=O)[C@@H](NC(=O)OCc1ccccc1)C(C)C)C(=O)CCl` [Cpd 14] (Cbz-Val-Ala-Glu(OMe)-CH2Cl), the midpoint of cytotoxicity in data set [1], the CC50 at 24 h, lay at 0.156 µM. Further, on UCHL1 [2], the IC50 is over 200 µM and the “in vitro activity against UCHL1” value is on record as “complete loss of in vitro activity”.
`COC(=O)CC[C@H](NC(=O)CNC(=O)[C@@H](NC(=O)OCc1ccccc1)C(C)C)C(=O)CF` [Cpd 15] (Cbz-Val-Gly-Glu(OMe)-CH2F): the IC50 at UCHL1 [2] was 95 µM.
Take `CC(C)[C@H](NC(=O)OCc1ccccc1)C(=O)NCC(=O)N[C@@H](CCC(=O)O)C(=O)CF` [Cpd 16] (Cbz-Val-Gly-Glu-CH2F): the IC50 at UCHL1 [2] is over 200 µM. Further, on UCHL1 [3], the “in vitro activity against UCHL1” value is “complete abrogation of activity”.
As to `COC(=O)CC[C@H](NC(=O)[C@H](C)NC(=O)[C@H](NC(=O)OCc1ccccc1)C(C)C)C(=O)CF` [Cpd 17] (Cbz-[dV]-Ala-Glu(OMe)-CH2F), on UCHL1 [2], the IC50 is over 200 µM and the “in vitro activity against UCHL1” value is listed as “complete loss of activity”.
In the same order, the values of `COC(=O)CC[C@H](NC(=O)[C@H](C)NC(=O)CNC(=O)OCc1ccccc1)C(=O)CF` [Cpd 18] (Cbz-Gly-Ala-Glu(OMe)-CH2F) are over 200 µM and “complete abrogation of activity”.
Regarding `COC(=O)CC[C@H](NC(=O)[C@H](C)NC(=O)[C@H](C)NC(=O)OCc1ccccc1)C(=O)CF` [Cpd 19] (Cbz-Ala-Ala-Glu(OMe)-CH2F), on UCHL1 [2], the IC50 was found to be 76 µM. Besides, the “fold less effective than parent compound 1” value at UCHL1 [2] (setting [6]) is on record as 3 fold.
Take `COC(=O)CC[C@H](NC(=O)[C@H](C)NC(=O)[C@H](CC(C)C)NC(=O)OCc1ccccc1)C(=O)CF` [Cpd 20] (Cbz-Leu-Ala-Glu(OMe)-CH2F): at UCHL1 [2], the IC50 stood at 23 µM.
Still for that read-out and setting: then `COC(=O)CC[C@H](NC(=O)[C@H](C)NC(=O)[C@H](Cc1ccccc1)NC(=O)OCc1ccccc1)C(=O)CF` [Cpd 21, Cbz-L-Phe-L-Ala-L-Glu(OMe)-fluoromethylketone] (Cbz-Phe-Ala-Glu(OMe)-CH2F), with 13 µM; and `COC(=O)CC[C@H](NC(=O)[C@H](C)NC(=O)[C@H](CO)NC(=O)OCc1ccccc1)C(=O)CF` [Cpd 22] (Cbz-Ser-Ala-Glu(OMe)-CH2F), with 185 µM; and `COC(=O)CC[C@H](NC(=O)[C@H](C)NC(=O)[C@@H](NC(=O)OCc1ccccc1)[C@@H](C)O)C(=O)CF` [Cpd 23] (Cbz-Thr-Ala-Glu(OMe)-CH2F), with 100 µM.
On the same count and under the same terms, then `COC(=O)CC[C@H](NC(=O)[C@H](C)NC(=O)[C@H](CC(N)=O)NC(=O)OCc1ccccc1)C(=O)CF` [Cpd 24] (Cbz-Asn-Ala-Glu(OMe)-CH2F), with 119 µM; and `COC(=O)CC[C@H](NC(=O)[C@H](C)NC(=O)[C@H](CC(=O)O)NC(=O)OCc1ccccc1)C(=O)CF` [Cpd 25] (Cbz-Asp-Ala-Glu(OMe)-CH2F), with over 200 µM.
For `COC(=O)CC[C@H](NC(=O)[C@@H](C)NC(=O)[C@@H](NC(=O)OCc1ccccc1)C(C)C)C(=O)CF` [Cpd 26] (Cbz-Val-[dA]-Glu(OMe)-CH2F), at UCHL1 [2], the IC50 was over 200 µM and the “in vitro activity against UCHL1” value was “loss of activity”.
As for `COC(=O)CC[C@H](NC(=O)[C@H](CC(C)C)NC(=O)[C@@H](NC(=O)OCc1ccccc1)C(C)C)C(=O)CF` [Cpd 27] (Cbz-Val-Leu-Glu(OMe)-CH2F), the IC50 on UCHL1 [2] is over 200 µM.
Turning to `COC(=O)CC[C@H](NC(=O)[C@H](Cc1ccccc1)NC(=O)[C@@H](NC(=O)OCc1ccccc1)C(C)C)C(=O)CF` [Cpd 28] (Cbz-Val-Phe-Glu(OMe)-CH2F), the IC50 at UCHL1 [2] was over 200 µM.
Regarding `COC(=O)CC[C@H](NC(=O)[C@H](CO)NC(=O)[C@@H](NC(=O)OCc1ccccc1)C(C)C)C(=O)CF` [Cpd 29] (Cbz-Val-Ser-Glu(OMe)-CH2F), the concentration for half-maximal inhibition (IC50) at UCHL1 [2] is 100 µM.
On the same count and under the same terms, next, `COC(=O)CC[C@H](NC(=O)[C@@H](NC(=O)[C@@H](NC(=O)OCc1ccccc1)C(C)C)[C@@H](C)O)C(=O)CF` [Cpd 30] (Cbz-Val-Thr-Glu(OMe)-CH2F): over 200 µM.
For `COC(=O)CC[C@H](NC(=O)[C@H](CC(N)=O)NC(=O)[C@@H](NC(=O)OCc1ccccc1)C(C)C)C(=O)CF` [Cpd 31] (Cbz-Val-Asn-Glu(OMe)-CH2F), on UCHL1 [2], the IC50 was over 200 µM.
On the same count and under the same terms, then `COC(=O)CC[C@H](NC(=O)[C@H](CC(=O)O)NC(=O)[C@@H](NC(=O)OCc1ccccc1)C(C)C)C(=O)CF` [Cpd 32] (Cbz-Val-Asp-Glu(OMe)-CH2F), with over 200 µM.
Same read-out and setting: then `COC(=O)CC[C@H](NC(=O)[C@H](CCC(=O)O)NC(=O)[C@@H](NC(=O)OCc1ccccc1)C(C)C)C(=O)CF` [Cpd 33] (Cbz-Val-Glu-Glu(OMe)-CH2F), with over 200 µM.
`C#Cc1ccc(COC(=O)N[C@H](C(=O)NCC(=O)N[C@@H](CCC(=O)OC)C(=O)CF)C(C)C)cc1` [Cpd 35]: the IC50 at UCHL1 [2] was 62 µM. Also, the “fold more active than non-alkyne analog 15” value at UCHL1 [2] (setting [6]) is listed as “about 1.5 fold”.
For the compound `C#Cc1ccc(COC(=O)N[C@@H](Cc2ccccc2)C(=O)N[C@@H](C)C(=O)N[C@@H](CCC(=O)OC)C(=O)CF)cc1` [Cpd 36], the IC50 at UCHL1 [2] was found to be 11 µM. On UCHL1 [2] (setting [6]), the “fold more active than 1 versus UCHL1” value was determined as 2 fold. In addition, on UCHL1 [4] (Table 3 and text, read-out: kinact/KI), the kinact/KI was found to be 208 M⁻¹ s⁻¹. The kinact on UCHL1 [4] (read-out: kinact) is 0.0157 s⁻¹. The Ki at UCHL1 [4] (reversible binding constant of covalent inhibition, read-out: KI) amounted to 75.3 µM.
Regarding `C#Cc1ccc(COC(=O)N[C@H](C(=O)N[C@@H](C)C(=O)N[C@@H](CCC(=O)OC)C(=O)CCl)C(C)C)cc1` [Cpd 37], half-maximal cytotoxicity in data set [1] (CC50 at 24 h) was put at 0.176 µM. Further, in the data set on SW1271 cells, the “proteins labelled in SW1271 cells (Cy5 click, in-gel fluorescence)” value was “non-specifically label multiple proteins within the cell”. At UCHL1 [2], the IC50 is over 200 µM and the “in vitro activity against UCHL1” value is “inactive”.
Regarding `N#CN1CCC[C@H]1C(=O)N1CCc2c(-c3cn[nH]c3C(F)(F)F)cccc21` [MT-19], the “anti-proliferative properties in KMS-12 cell lines” value in the data set on KMS-12 cell lines is recorded as “anti-proliferative properties”.
With `COC(=O)C[C@H](NC(=O)[C@H](C)NC(=O)[C@@H](NC(=O)OCc1ccccc1)C(C)C)C(=O)CF` [VADFMK] (Cbz-Val-Ala-Asp(OMe)-CH2F), the “activity against UCHL1” value at UCHL1 [5] was “inactive”.
